Experimental findings from ChEMBL document CHEMBL5625191, “A review of progress in o-aminobenzamide-based HDAC inhibitors with dual targeting capabilities for cancer therapy” (Eur J Med Chem, 2023) are described below.

For orientation: IC50 means the concentration that inhibits the measured activity by half. In general, inhibition refers to the percentage by which the read-out fell short of the control. Higher therefore signals a response far below the control. The T/C is the result in the treated group divided by that in the control group, in per cent.

One experiment addresses Histone deacetylase. In words: Inhibition of HDAC (unknown origin). The format is protein assay, Homo sapiens.
For another experiment, the system named is RPMI-8226. In words: Antiproliferative activity against human RPMI-8226 cells assessed as inhibition of cell growth incubated for 72 hrs by XTT assay. The conditions noted are these: RPMI-8226, 72 h. The format is functional, cell-based.
Experiment [1] has as its target Histone deacetylase (Homo sapiens) (UniProt Q13547+O15379+Q9UBN7+Q92769+Q9UQL6+Q8WUI4+Q9BY41+Q96DB2+P56524+Q9UKV0+Q969S8). In words: Inhibition of HDAC in human RPMI-8226 cells at 10 uM incubated for 8 hrs relative to control. Format: cell-based.
Experiment [2] can be described thus: Antiproliferative activity against human Bortezomib-resistant RPMI-8226 cells assessed as inhibition of cell growth incubated for 72 hrs by XTT assay. The format is functional, cell-based. To be noted: Bortezomib-resistant RPMI-8226, 72 h. Background: Tetrazolium dyes change colour on reduction, which living cells bring about.
Experiment [3] concerns the target T1, Histone deacetylase 2 (Homo sapiens, UniProt Q92769). In words: Inhibition of HDAC2 (unknown origin).
The target of experiment [4] is T2, Histone deacetylase 1 (Homo sapiens, UniProt Q13547). Kind of experiment: Inhibition of HDAC1 (unknown origin).
T2 sequence (Q13547 whole entry): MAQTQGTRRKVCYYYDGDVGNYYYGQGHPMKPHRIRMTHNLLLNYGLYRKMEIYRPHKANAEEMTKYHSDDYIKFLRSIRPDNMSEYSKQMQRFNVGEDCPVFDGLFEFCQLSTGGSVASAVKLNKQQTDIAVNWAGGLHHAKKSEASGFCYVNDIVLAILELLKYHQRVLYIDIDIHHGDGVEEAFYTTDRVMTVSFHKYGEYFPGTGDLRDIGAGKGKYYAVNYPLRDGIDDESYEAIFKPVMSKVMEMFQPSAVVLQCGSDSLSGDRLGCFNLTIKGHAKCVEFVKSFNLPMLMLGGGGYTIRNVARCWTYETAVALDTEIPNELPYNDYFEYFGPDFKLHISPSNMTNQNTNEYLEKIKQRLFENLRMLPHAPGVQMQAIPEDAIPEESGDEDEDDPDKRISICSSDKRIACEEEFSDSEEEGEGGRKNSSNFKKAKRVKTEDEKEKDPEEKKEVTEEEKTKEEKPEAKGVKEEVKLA
Experiment [5] deals with HCT-116. In words: Antiproliferative activity against human HCT-116 cells assessed as inhibition of cell growth. Format: functional, cell-based.
A short description of experiment [6]: Antiproliferative activity against human SCCIC1 cells assessed as inhibition of cell growth. The format is functional, cell-based.
Experiment [7] in a line: Antiproliferative activity against human MET-1 cells assessed as inhibition of cell growth. The format is functional, cell-based.
A further experiment deals with SK-MEL-1. Kind of experiment: Antitumor activity against human SK-MEL-1 cells assessed as tumor growth inhibition at 30 mg/kg, ip administered for 28 days. Format: functional. To be noted: SK-MEL-1, 672 h, time 28 day, read-out: TGI.
Experiment [8] concerns HCT-116. Kind of experiment: Antiproliferative activity against human HCT-116 cells assessed as inhibition of cell growth incubated for 48 hrs by MTT assay. The conditions noted are these: HCT-116, 48 h. Format: functional, cell-based.
Experiment [9] concerns the target T2, Histone deacetylase 1. In words: Inhibition of HDAC1 in human HeLa nuclear extract using Boc-Lys(Ac)-AMC or Boc-Lys(Tfa)-AMC as substrate preincubated for 5 mins followed by substrate addition and measured after 30 mins by fluorescence assay. The format is cell-free.
The target of experiment [10] is T1, Histone deacetylase 2. Kind of experiment: Inhibition of HDAC2 in human HeLa nuclear extract using Boc-Lys(Ac)-AMC or Boc-Lys(Tfa)-AMC as substrate preincubated for 5 mins followed by substrate addition and measured after 30 mins by fluorescence assay. Format: cell-free.
The target of experiment [11] is T3, Histone deacetylase 3 (Homo sapiens, UniProt O15379). Kind of experiment: Inhibition of HDAC3 in human HeLa nuclear extract using Boc-Lys(Ac)-AMC or Boc-Lys(Tfa)-AMC as substrate preincubated for 5 mins followed by substrate addition and measured after 30 mins by fluorescence assay. The format is cell-free.
T3 sequence (O15379 whole entry): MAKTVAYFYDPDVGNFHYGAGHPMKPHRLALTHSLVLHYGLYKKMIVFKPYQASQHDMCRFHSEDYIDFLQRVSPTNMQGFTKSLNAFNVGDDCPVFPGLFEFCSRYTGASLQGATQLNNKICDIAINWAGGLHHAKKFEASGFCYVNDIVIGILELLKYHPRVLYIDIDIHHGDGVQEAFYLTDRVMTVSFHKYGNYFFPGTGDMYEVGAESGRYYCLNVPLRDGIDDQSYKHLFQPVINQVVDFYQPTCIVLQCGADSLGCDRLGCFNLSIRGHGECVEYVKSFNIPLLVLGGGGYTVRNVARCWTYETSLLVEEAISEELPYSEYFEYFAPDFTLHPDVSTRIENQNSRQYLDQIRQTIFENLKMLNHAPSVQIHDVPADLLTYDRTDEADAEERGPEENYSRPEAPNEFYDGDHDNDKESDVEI
For experiment [12], the system named is HeLa. Kind of experiment: Antiproliferative activity against human HeLa cells assessed as inhibition of cell growth incubated for 48 hrs by MTT assay. The format is functional, cell-based.
The next experiment deals with PC-3. In words: Antiproliferative activity against human PC-3 cells assessed as inhibition of cell growth incubated for 48 hrs by MTT assay. The format is functional, cell-based. The conditions noted are these: PC-3, 48 h.
Another experiment relates to HEL. In words: Antiproliferative activity against human HEL cells assessed as inhibition of cell growth incubated for 48 hrs by MTT assay. Format: functional, cell-based.
A further experiment deals with MOLT-4. Kind of experiment: Antiproliferative activity against human MOLT-4 cells assessed as inhibition of cell growth incubated for 48 hrs by MTT assay. Format: functional, cell-based. To be noted: MOLT-4, 48 h.
A further experiment deals with Jurkat. In words: Antiproliferative activity against human Jurkat cells assessed as inhibition of cell growth incubated for 48 hrs by MTT assay. The format is functional, cell-based.
Experiment [13] has as its system A549. In words: Antiproliferative activity against human A549 cells assessed as inhibition of cell growth incubated for 48 hrs by MTT assay. The conditions noted are these: A549, 48 h. The format is functional, cell-based.
For experiment [14], the system named is HCT-116. In words: Antitumor activity against human HCT-116 cells xenografted in BALB/c nude mouse assessed as increase in increment ratio at 30 mg/kg, po administered for 3 days. Format: functional. The conditions noted are these: time 3 day. A general note: In xenograft studies the graft and the host belong to different species.
Experiment [15] concerns HCT-116. Kind of experiment: Antitumor activity against human HCT-116 cells xenografted in BALB/c nude mouse assessed as tumor growth inhibition at 30 mg/kg, po administered for 3 days. The format is functional. The conditions noted are these: HCT-116, 72 h, time 3 day, read-out: TGI.
Experiment [16] deals with MGC-803. Kind of experiment: Antiproliferative activity against human MGC-803 cells assessed as inhibition of cell growth. Format: functional, cell-based.
In a further experiment the test system is KYSE-450. Kind of experiment: Antiproliferative activity against human KYSE-450 cells assessed as inhibition of cell growth. Format: functional, cell-based.
Another experiment deals with Tubulin. Kind of experiment: Inhibition of tubulin polymerization (unknown origin). Format: protein-complex assay, Homo sapiens.
In experiment [17] the target is Macrophage migration inhibitory factor (Homo sapiens, UniProt P14174). In words: Inhibition of MIF (unknown origin) tautomerase activity incubated for 10 mins by microplate reader analysis.
Macrophage migration inhibitory factor, sequence (P14174 whole entry, the tested form may be a part): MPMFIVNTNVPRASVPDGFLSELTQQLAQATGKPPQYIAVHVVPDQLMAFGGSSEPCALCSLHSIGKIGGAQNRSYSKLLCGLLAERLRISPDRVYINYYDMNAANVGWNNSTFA
The target in experiment [18] is T2, Histone deacetylase 1. Kind of experiment: Inhibition of full length C-terminal his6-tagged human recombinant HDAC1 (1 to 482 residues) expressed in Sf9 cells using fluorogenic Boc-Lys(Ac)-AMC as substrate incubated for 90 mins by Synergy H1 plate reader analysis.
Experiment [19] deals with T1, Histone deacetylase 2. In words: Inhibition of full length C-terminal FLAG-tagged human recombinant HDAC2 (1 to 488 residues) expressed in Sf9 cells using fluorogenic Boc-Lys(Ac)-AMC as substrate incubated for 90 mins by Synergy H1 plate reader analysis.
Experiment [20] deals with T3, Histone deacetylase 3. Kind of experiment: Inhibition of C-terminl his-tagged human recombinant HDAC3 (1 to 428 residues) expressed in Sf9 cells using fluorogenic Boc-Lys(Ac)-AMC as substrate incubated for 90 mins by Synergy H1 plate reader analysis.
Experiment [21] relates to MCF7. Kind of experiment: Antiproliferative activity against human MCF7 cells assessed as inhibition of cell growth incubated for 48 hrs by CCK-8 assay. The conditions noted are these: MCF7, 48 h. Format: functional, cell-based.
For experiment [22], the system named is HCT-116. In words: Antitumor activity against human HCT-116 cells xenografted in BALB/c mouse assessed tumor growth inhibition at 150 mg/kg, po bid measured for every 3 days. The conditions noted are these: HCT-116, 72 h, time 3 day, read-out: TGI. The format is functional.
Experiment [23] deals with Protein deacetylase HDAC6 (Homo sapiens, UniProt Q9UBN7). In words: Inhibition of HDAC6 (unknown origin).
Protein deacetylase HDAC6, sequence (Q9UBN7 whole entry): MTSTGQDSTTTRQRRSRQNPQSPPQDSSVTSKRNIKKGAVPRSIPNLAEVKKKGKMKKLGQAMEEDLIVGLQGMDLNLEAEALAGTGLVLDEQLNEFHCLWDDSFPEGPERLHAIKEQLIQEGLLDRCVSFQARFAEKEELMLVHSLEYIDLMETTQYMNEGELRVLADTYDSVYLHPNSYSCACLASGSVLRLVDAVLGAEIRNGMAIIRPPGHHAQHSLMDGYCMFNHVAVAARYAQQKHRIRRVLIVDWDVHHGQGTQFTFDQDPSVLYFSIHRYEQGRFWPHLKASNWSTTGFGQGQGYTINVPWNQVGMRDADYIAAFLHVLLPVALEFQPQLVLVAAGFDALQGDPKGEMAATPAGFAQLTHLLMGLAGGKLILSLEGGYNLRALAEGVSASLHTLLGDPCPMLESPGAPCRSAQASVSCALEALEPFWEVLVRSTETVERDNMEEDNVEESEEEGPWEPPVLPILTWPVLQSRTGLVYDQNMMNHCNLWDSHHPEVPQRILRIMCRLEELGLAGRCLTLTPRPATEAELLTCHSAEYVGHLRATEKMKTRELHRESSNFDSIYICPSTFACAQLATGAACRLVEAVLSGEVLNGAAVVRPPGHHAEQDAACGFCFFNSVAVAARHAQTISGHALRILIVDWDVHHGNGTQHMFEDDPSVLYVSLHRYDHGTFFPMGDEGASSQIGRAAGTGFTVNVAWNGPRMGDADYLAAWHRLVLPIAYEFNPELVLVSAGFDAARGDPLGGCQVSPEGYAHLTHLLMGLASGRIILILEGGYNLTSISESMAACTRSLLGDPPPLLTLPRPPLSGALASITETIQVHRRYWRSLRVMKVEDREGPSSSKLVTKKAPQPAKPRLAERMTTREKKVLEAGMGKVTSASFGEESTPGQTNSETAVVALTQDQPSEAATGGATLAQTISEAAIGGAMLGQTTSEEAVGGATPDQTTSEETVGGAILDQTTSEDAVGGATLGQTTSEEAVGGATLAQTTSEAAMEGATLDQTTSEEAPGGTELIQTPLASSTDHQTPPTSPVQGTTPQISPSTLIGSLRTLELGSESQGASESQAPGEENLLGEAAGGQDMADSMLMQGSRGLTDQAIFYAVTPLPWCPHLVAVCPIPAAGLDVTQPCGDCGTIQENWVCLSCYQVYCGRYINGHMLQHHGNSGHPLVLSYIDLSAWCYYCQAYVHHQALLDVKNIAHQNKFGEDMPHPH
Another experiment deals with U-937. In words: Cytotoxicity against human U-937 cells assessed as inhibition of cell growth. The format is functional, cell-based.
In experiment [24] the test system is MCF7. Kind of experiment: Cytotoxicity against human MCF7 cells assessed as inhibition of cell growth. Format: functional, cell-based.
Experiment [25] relates to MGC-803. In words: Cytotoxicity against human MGC-803 cells assessed as inhibition of cell growth. Format: functional, cell-based.
Experiment [26] relates to HeLa. In words: Cytotoxicity against human HeLa cells assessed as inhibition of cell growth. The format is functional, cell-based.
Experiment [27] has as its system HepG2. In words: Cytotoxicity against human HepG2 cells assessed as inhibition of cell growth. The format is functional, cell-based.
For experiment [28], the system named is A549. Kind of experiment: Antiproliferative activity against human A549 cells assessed as inhibition of cell growth incubated for 72 hrs by CCK-8 assay. The format is functional, cell-based. The conditions noted are these: A549, 72 h.
In experiment [29] the test system is HepG2. Kind of experiment: Antiproliferative activity against human HepG2 cells assessed as inhibition of cell growth incubated for 72 hrs by CCK-8 assay. Format: functional, cell-based. The conditions noted are these: HepG2, 72 h.
For another experiment, the system named is SK-N-BE(2). Kind of experiment: Antiproliferative activity against human SK-N-BE(2) cells assessed as inhibition of cell growth incubated for 72 hrs by CCK-8 assay. The format is functional, cell-based. The conditions noted are these: SKNBE2, 72 h.
Another experiment concerns NCI-H2228. Kind of experiment: Antiproliferative activity against human NCI-H2228 cells assessed as inhibition of cell growth incubated for 72 hrs by CCK-8 assay. Format: functional, cell-based. The conditions noted are these: NCI-H2228, 72 h.

Structures are written as SMILES.

T1 sequence (Q92769 whole entry): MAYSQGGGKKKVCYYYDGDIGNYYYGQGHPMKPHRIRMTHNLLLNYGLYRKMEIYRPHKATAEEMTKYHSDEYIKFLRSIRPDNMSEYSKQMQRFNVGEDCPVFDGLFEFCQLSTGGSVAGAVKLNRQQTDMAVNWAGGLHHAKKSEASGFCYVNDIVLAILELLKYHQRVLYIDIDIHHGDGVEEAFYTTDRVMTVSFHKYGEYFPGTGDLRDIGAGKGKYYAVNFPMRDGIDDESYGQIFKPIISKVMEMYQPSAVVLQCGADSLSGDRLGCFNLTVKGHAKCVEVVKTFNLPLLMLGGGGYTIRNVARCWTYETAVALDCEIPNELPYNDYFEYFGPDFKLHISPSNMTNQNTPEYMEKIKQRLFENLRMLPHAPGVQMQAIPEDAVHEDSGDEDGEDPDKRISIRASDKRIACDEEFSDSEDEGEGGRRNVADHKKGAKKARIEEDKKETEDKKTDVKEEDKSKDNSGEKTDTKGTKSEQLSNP

In the case of `CC(C)C[C@@H](NC(=O)[C@H](Cc1ccccc1)NC(=O)c1cnc(C(=O)Nc2ccccc2N)cn1)B1OC2CC3CC(C3(C)C)[C@@]2(C)O1` (some centres undefined), the results for the IC50 (on Histone deacetylase; with RPMI-8226; in experiment [2]) were 23.6 nM, 9.5 nM and 158 nM, respectively. The compound also gave an inhibition in [1] of 33%.
Take `COc1ccc2[nH]c3c(c2c1)CCN1C(=O)c2cc(NCc4ccc(C(=O)Nc5ccccc5N)cc4)ccc2N(C)[C@H]31`: the IC50 on Histone deacetylase 2 [3] worked out at 9370 nM; on Histone deacetylase 1 [4], 2660 nM; in the experiment on HCT-116 [5], 7820 nM.
For the compound `Nc1ccccc1NC(=O)c1ccc(CCCC(=O)Nc2ccc([C@@H]3C[C@H]3N)cc2)cc1`, the values for the IC50 in experiment [6] and in experiment [7] were 41 nM and 6 nM, respectively. For the same compound, in the experiment on SK-MEL-1, the inhibition in vivo at 30 mg/kg was 61%.
Take `Nc1ccccc1NC(=O)CCCCOc1no[n+]([O-])c1S(=O)(=O)c1ccccc1`: the IC50 in the experiment on HCT-116 [8] turned out to be 930 nM; at Histone deacetylase 1 [9] it was 620 nM; against Histone deacetylase 2 [10] it was 1460 nM; on Histone deacetylase 3 [11], 620 nM; in the experiment on HeLa [12], 1230 nM; with PC-3 it was 2690 nM. For the same compound, the IC50 was determined as 320 nM in the experiment with HEL, 590 nM with MOLT-4, 540 nM with Jurkat and 1030 nM in the experiment on A549 [13]. The T/C in the experiment on HCT-116 [14] came to 57%. Further, the inhibition in vivo at 30 mg/kg with HCT-116 [15] amounted to 36%.
On to `COc1ccc(CN(C(=O)Cc2ccc(C(=O)Nc3ccccc3N)cc2)c2cc(OC)c(OC)c(OC)c2)cc1O`, for which the IC50 at Histone deacetylase 1 [4] was 525 nM; with MGC-803 [16], 30 nM; in the experiment on HCT-116 [5] it was 172 nM; in the experiment on KYSE-450, 254 nM; against Tubulin, 3640 nM.
As to `Nc1ccccc1NC(=O)c1ccc(NC(=O)Cc2ccc(N3Cc4ccc(O)cc4OC3=O)cc2)cc1`, the IC50 in [17] is 180 nM; on Histone deacetylase 1 [18], 200 nM; on Histone deacetylase 2 [19], 1100 nM; on Histone deacetylase 3 [20] it was 600 nM.
As to `CN1c2ccccc2C(=O)N2[C@H](C(=O)Nc3ccc(C(=O)Nc4ccccc4N)cc3)Cc3c([nH]c4ccccc34)[C@@H]12`, in the experiment on MCF7 [21], the concentration for half-maximal inhibition (IC50) is 18 nM. Besides, the inhibition in vivo at 150 mg/kg in the experiment on HCT-116 [22] was determined as 75.2%.
As to `COc1cc2c(cc1OCc1ccc(C(=O)Nc3ccccc3N)cc1)CC[C@@H]1[C@H]3CC[C@@H](O)[C@]3(C)CC[C@@H]21`, the IC50 at Histone deacetylase 2 [3] worked out at 60 nM; in experiment [23], 120 nM; in the experiment with U-937, 371 nM; in the experiment with MCF7 [24], 370 nM; with MGC-803 [25], 370 nM; with HeLa [26] it was 370 nM. In addition, the IC50 in the experiment with HepG2 [27] was 370 nM.
On to `Nc1ccccc1NC(=O)CCCCCCCOc1no[n+]([O-])c1S(=O)(=O)c1ccccc1`, for which the IC50 amounted to 790 nM in the experiment with HCT-116 [8]; 660 nM against Histone deacetylase 1 [9]; 1200 nM at Histone deacetylase 2 [10]; 500 nM against Histone deacetylase 3 [11]; 1560 nM in the experiment on HeLa [12]; 1920 nM with PC-3. The IC50 with HEL amounted to 420 nM; in the experiment with MOLT-4, 720 nM; in the experiment on Jurkat, 470 nM; with A549 [13], 1550 nM.
For the compound `CC(C)S(=O)(=O)c1ccccc1Nc1nc(Nc2ccc(C(=O)Nc3ccccc3N)cc2)ncc1Cl`, the IC50 with A549 [28] was determined as 2 nM; in the experiment with HepG2 [29], 10 nM; in the experiment with SK-N-BE(2), 3 nM; in the experiment with NCI-H2228 it was 110 nM.
